Test results taken from patent publication US9326511B2, “Methods of inhibiting microbial biofilms” (priority 2008, dated 2016).

Tests used:
[1] = test system: S. aureus SH1000 stationary phase cultures; assay: Time-kill against stationary phase cultures; format: cell-based, Staphylococcus aureus; settings: early, mid and late stationary phase (24, 48, 72 hours), 10^8 bacteria/mL in spent medium
Method: The anti-staphylococcal activities of Compound 10, Compound 12 and a range of comparator agents against stationary phase cultures of Staphylococcus aureus were studied using standard time-kill methodology (Oliva et al., 2003, Hobbs et al., 2008). A growth curve was constructed to identify when SH1000 cultures enter and leave stationary phase. 50 mL of Mueller-Hinton broth (MHB) was inoculated with 500 μL of Staphylococcus aureus SH1000 overnight culture and was maintained at 37° C. with agitation for 8 days. The culture turbidity at OD600 nm was measured at regular intervals using a Jenway 6300 spectrophotometer with a 1 cm light path (Jenway, Essex, UK). Staphylococcus aureus SH1000 cultures were grown to early, mid and late stationary phase at 37° C. by incubation for 24, 48 and 72 hours respectively. Cultures were centrifuged, the supernatant was removed, and then a portion of the cell pellet was resuspended in the counterpart supernatant to an OD600 nm of 0.2 (10^8 bacteria/mL). A time-kill assay was then performed on these stationary phase suspensions to study the effects of antimicrobial agents on bacterial cell viability. An untreated culture served as the negative control. The experiments were undertaken in triplicate. […]

[2] = Chemical stability, qualitative stress tests (HPLC, LC-MS); format: physicochemical; settings: solid, aqueous solution, PBS, 7 days each at 50, 70 and 90° C.
Method: The following HPLC methodology was established for the analysis of the exemplary compounds of the invention.
The method involves detection by UV at a wavelength of 420 nm, which is very specific for these compounds. In order to monitor impurities not related to the porphyrin structure (and therefore not absorbing at 420 nm) UV spectra of the whole chromatograms were also recorded between 200 nm and 700 nm by DAD (diode array detector) in certain experiments. • Column: Zorbax Phenyl, 250×4.6 mm, 5 µm • Eluent A: 1.5 g sodium dodecylsulfate+1 mL formic acid in 1000 mL water • Eluent B: 1.5 g sodium dodecylsulfate+1 mL formic acid in 200 mL water+800 mL tetrahydrofurane • Gradient:
• Flow rate: 0.4 mL/min • Detection: 420 nm • Column temperature: 25° C. • Injection volume: 10 μl • Solutions: Porphyrin derivatives were dissolved in eluent A to give a final concentration of approximately 0.3 mg/ml.
Qualitative stress tests were undertaken on the exemplary compounds of the invention. Analysis was undertaken by HPLC & LC-MS. The compounds were stress tested in solid form, in an aqueous solution and a solution made up in phosphate-buffered saline buffer. The samples were initially incubated for 7 days at 50° C. and a sample removed for testing. The samples were then incubated for a further 7 days at 70° C., samples removed as before and the samples incubated further for 7 days at 90° C. HPLC analysis of freshly prepared solutions was undertaken and compared to the samples after 7, 14 and 21 days incubation. A visual comparison of the chromatograms was then undertaken and the content of the main products and by-products as area percentage values determined (see FIG. 4).

[3] = test system: S. aureus SH1000 cold cultures; assay: Time-kill against cold cultures (4° C.); format: cell-based, Staphylococcus aureus; settings: for viability / bactericidal activity in time-kill (in words): cold culture held at 4° C. for 5 hours, agents at 4×MIC
Method: Methods: MICs were determined for planktonic cultures by broth microdilution according to British Society for Antimicrobial Chemotherapy (BSAC) guidelines. Biofilm MICs (bMIC) and minimum biofilm eradication concentrations (MBECs) were determined using the Calgary biofilm device. The effect of Compound 10 on the viability of cold culture cells was determined by growing S. aureus SH1000 to early exponential phase at 37° C. and resuspending the cells in pre-chilled media, where they were maintained in the presence and absence of Compound 10 and control agents. The effect of Compound 10 on slow growing cells expressing the stringent response was also determined by growing cultures to early log phase and the stringent response induced by the addition of the isoleucyl-tRNA synthetase inhibitor mupirocin. Compound 10 and control agents were then added and samples recovered for viable cell determinations.
The effect of XF drugs on the viability of cold culture cells was determined by growing S. aureus SH1000 to early exponential phase at 37° C., harvesting the cells by centrifugation (5,000×g, 10 min.) and resuspending them in pre-chilled media where they were maintained in the presence and absence of XF drugs and control agents for 5 hours. […] (FIG. 11).
The anti-staphylococcal activities of Compound 10, Compound 12 and a range of comparator agents against slow-growing cultures of Staphylococcus aureus were studied using standard time-kill methodology (Oliva et al. 2003, Hobbs et al. 2008). Staphylococcus aureus SH1000 cultures were grown to early exponential phase (OD600 nm of 0.2) in Mueller-Hinton broth (MHB) before being exposed to antibacterial agents at 4×MIC. An untreated culture served as the negative control. The experiments were undertaken in triplicate.
Cold cultures were prepared by growing SH1000 cells to early exponential phase (OD600 nm of 0.2) at 37° C. Cultures were then centrifuged and the cell pellet was resuspended in MHB pre-chilled to 4° C. The killing kinetics of antimicrobial agents were studied as described in the section above, with the exception that cultures were maintained at 4° C. over the 5 hour sampling period.

SMILES | bactericidal activity in time-kill (in words) [1] | Chemical stability under stress [2] | viability / bactericidal activity in time-kill (in words) [3] | drop in viability ([3]; cold culture (4° C.), 4×MIC, within 1 hour) [log]
C[N+](C)(C)CCCOc1cccc(-c2c3nc(cc4ccc([nH]4)c(-c4cccc(OCCC[N+](C)(C)C)c4)c4nc(cc5ccc2[nH]5)C=C4)C=C3)c1.[Cl-].[Cl-] [Compound 12, 5,15-bis-[3-(3-Trimethylammonio-propyloxy)-phenyl]-porphyrin dichloride] | retained potent bactericidal activity | good stability | retained potent bactericidal activity | 
C[N+](C)(C)CCCOc1ccc(-c2c3nc(cc4ccc([nH]4)c(-c4ccc(OCCC[N+](C)(C)C)cc4)c4nc(cc5ccc2[nH]5)C=C4)C=C3)cc1.[Cl-].[Cl-] [Compound 10, 5,15-bis-[4-(3-Trimethylammonio-propyloxy)-phenyl]-porphyrin dichloride] | retained potent bactericidal activity | good stability | retained potent bactericidal activity | 5
